Experiment [1] deals with human acute myeloid leukemia cell line (HEL92.1.7) having a JAK2 V617F mutation. The experiment in a line: Cell growth inhibitory activity against human acute myeloid leukemia cell line (WST-1 assay). Type of experiment: cell-based. The settings on record: at a concentration of 10 µmol/L against HEL92.1.7, 72 hours culture. The protocol: Test Example 2: Cell growth inhibitory activity against human acute myeloid leukemia cell line
The cell growth inhibitory activity of test compound against a human acute myeloid leukemia cell line (HEL92.1.7) (ATCC No. TIB-180) having a JAK2 V617F mutation was measured according to the following process.
A Roswell Park Memorial Institute's Medium (RPMI) 1640 medium (GIBCO, catalog No. 11875-093) containing 10% fetal bovine serum (GIBCO, catalog No. 10437-028) was used to culture each cells. HEL92.1.7 cells controlled at 2. 5 × 10^4 cells/mL were inoculated into a TC MICROWELL 96U plate (Nalge Nunc, catalog No. 163320) at 80 µL per well, and were cultured at 37°C for 4 hours in a 5% carbon dioxide gas incubator. Then, 20 µL per well of DMSO solutions of test compounds adjusted to a final concentration of 10 µmol/L were added to the HEL92.1.7 cells, and the resulting mixtures were cultured again at 37°C for 72 hours in a 5% carbon dioxide gas incubator. Finally, 25 µL of WST-1 reagent {4-[3-(4-indophenyl)-2-(4-nitrophenyl)-2H-5-tetrazolio]-1,3-benz ene disulfonate sodium salt} (Roche Diagnostics K.K., catalog No. 1644807) diluted to 40% with the medium described above was added, and incubation was conducted at 37°C for 2 hours, followed by measuring absorbance at 450 nm (reference wavelength: 690 nm) with a microplate spectrophotometer SPECTRA max 340PC (Molecular Devices). As for the cell growth inhibition ratio, the relative activity (%) of the well containing a test compound was calculated by assuming the activity of the well in which […] a medium to which only DMSO was added as 0%, and then the difference between 100 and the obtained value was assumed as the growth inhibition ratio (%) of the test compound. The higher the value, the stronger the growth inhibition activity against the cells.
On the technique in general: Tetrazolium assays rely on reduction of a dye to a coloured formazan, in cell work by metabolically active cells.

For the next experiment, the target named is T1, human JAK2 (Homo sapiens, UniProt O60674).
T1 construct: a functional domain (826-1132 amino acids) of human JAK2
The experiment in a line: JAK2 enzyme inhibitory activity (time-resolved fluorescence kinase assay with biotinylated Lyn-substrate peptide). In kind it is biochemical. To be noted: at a concentration of 1 µmol/L; His-tagged JAK2 (826-1132 amino acids), 10 µmol/L ATP, 30°C, 60 minutes. The protocol:
In order to measure the JAK2 enzyme inhibitory activity, the following process was employed. […] The relative activity (%) of the well containing the test compound was calculated by assuming the activity of the well of the enzyme to which 0.1% DMSO was added as 100% and the activity of the well to which no enzyme was added as 0%, and the difference between 100 and the obtained value was assumed to be the JAK2 inhibition ratio (%) of the test compound.

Where a name gives a salt, the structure may show the parent alone.

T1 sequence (O60674 826-1132): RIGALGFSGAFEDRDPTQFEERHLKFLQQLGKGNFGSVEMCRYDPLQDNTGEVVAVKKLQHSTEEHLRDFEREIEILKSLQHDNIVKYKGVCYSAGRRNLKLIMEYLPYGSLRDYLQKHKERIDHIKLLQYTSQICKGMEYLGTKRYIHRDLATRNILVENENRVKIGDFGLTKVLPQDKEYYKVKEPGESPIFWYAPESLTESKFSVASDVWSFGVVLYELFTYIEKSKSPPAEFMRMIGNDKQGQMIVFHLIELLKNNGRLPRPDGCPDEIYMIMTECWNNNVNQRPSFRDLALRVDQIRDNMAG

For `CC(C)Nc1cc2c(c(-c3cc4cc(CN5CCCCC5)ccc4[nH]3)c1)C(=O)NC2` [Compound 509, 5-(2-Propylamino)-7-[1H-5-(piperidinomethyl)indol-2-yl)isoindoli none dihydrochloride], the “cell growth inhibition ratio” value in experiment [1] is reported as not below 50%. For the same compound, the JAK2 inhibition ratio on human JAK2 was not below 50%.

As for `O=C1NCc2c(-c3ccc(O)cc3)ccc(-c3cc4cc(CN5CCCCC5)ccc4[nH]3)c21` [Compound 305, 4-(4-Hydroxyphenyl)-7-[1H-5-(piperidinomethyl)indol-2-yl]isoindo linone hydrochloride], the “cell growth inhibition ratio” value in experiment [1] is not below 50%. Further, the JAK2 inhibition ratio on human JAK2 is not below 50%.

Turning to `CCN(CC)Cc1ccc2[nH]c(-c3cc(CN(C)C)cc4c3C(=O)NC4)cc2c1` [Compound 504, 5-(Dimethylaminomethyl)-7-[1H-5-(diethylaminomethyl)indol-2-yl)i soindolinone], the “cell growth inhibition ratio” value in experiment [1] was not below 50%. Moreover, on human JAK2, the JAK2 inhibition ratio was not below 50%.

In the case of `CN(C)Cc1cc2c(c(-c3cc4cc(CN5CCN(CCO)CC5)ccc4[nH]3)c1)C(=O)NC2` [Compound 483, 5-(Dimethylaminomethyl)-7-{1H-5-[4-(2-hydroxyethyl)piperazin-1-ylmethyl]indol-2-yl}isoindolinone trihydrochloride], in experiment [1], the “cell growth inhibition ratio” value was not below 50%. The JAK2 inhibition ratio at human JAK2 is listed as not below 50%.

For `CN(C)Cc1cc(-c2cc3cc(CN4CCCCC4)ccc3[nH]2)c2c(c1O)CNC2=O` [Compound 562, 4-Hydroxy-5-(dimethylaminomethyl)-7-[1H-5-(piperidinomethyl)indol-2-yl]isoindolinone dihydrochloride], the “cell growth inhibition ratio” value in experiment [1] is given as not below 50%. In addition, at human JAK2, the JAK2 inhibition ratio is recorded as not below 50%.

In the case of `CCN(CC)Cc1ccc2[nH]c(-c3cc(C(O)C(C)C)cc4c3C(=O)NC4)cc2c1` (centres unmarked) [Compound 555, 5-(1-Hydroxy-2-methylpropyl)-7-[1H-5-(diethylaminomethyl)indol-2-yl]isoindolinone hydrochloride], the “cell growth inhibition ratio” value in experiment [1] is not below 50%. Further, the JAK2 inhibition ratio on human JAK2 was not below 50%.

As to `CC(C)Oc1cc2c(c(-c3ccc[nH]3)c1)C(=O)NC2` [Compound 571, 5-(2-Propyloxy)-7-(1H-pyrrol-2-yl)isoindolinone], in experiment [1], the “cell growth inhibition ratio” value is not below 50%. The JAK2 inhibition ratio on human JAK2 is listed as not below 50%.

Take `Cc1cc(O)ccc1-c1cc2c(c(-c3cc4cc(CN5CCCCC5)ccc4[nH]3)c1)C(=O)NC2` [Compound 550, 5-(4-Hydroxy-2-methylphenyl)-7-[1H-5-(piperidinomethyl)indol-2-yl]isoindolinone]: the “cell growth inhibition ratio” value in experiment [1] was not below 50%. The JAK2 inhibition ratio on human JAK2 is on record as not below 50%.

Regarding `CC(C)Oc1cc2c(c(-c3cc4cc(CN5CCCCC5)ccc4[nH]3)c1)C(=O)NC2` [Compound 484, 5-(2-Propyloxy)-7-[1H-5-(piperidinomethyl)indol-2-yl]isoindolinone hydrochloride], the “cell growth inhibition ratio” value in experiment [1] is on record as not below 50%. Further, at human JAK2, the JAK2 inhibition ratio is given as not below 50%.

As for `O=C1NCc2c(C#CCCO)ccc(-c3cc4cc(CN5CCCCC5)ccc4[nH]3)c21` [Compound 320, 4-(4-Hydroxy-1-butynyl)-7-[1H-5-(piperidinomethyl)indol-2-yl]iso indolinone hydrochloride], in experiment [1], the “cell growth inhibition ratio” value is on record as not below 50%. The JAK2 inhibition ratio on human JAK2 is reported as not below 50%.

The values are drawn from EP2108642A1, “JAK INHIBITOR” (Kyowa Hakko Kirin Co., Ltd., priority 2006, dated 2008).
